According to ChEMBL document CHEMBL4229524, “Design, synthesis and preclinical evaluation of 5-methyl-N4-aryl-furo[2,3-d]pyrimidines as single agents with combination chemotherapy potential” (Bioorg Med Chem Lett, 2018):

Legend:
[1] = target: Epidermal growth factor receptor (Homo sapiens, UniProt P00533); type: cell-based
[2] = target: Vascular endothelial growth factor receptor 2 (Homo sapiens, UniProt P35968); type: cell-based
[3] = target: Platelet-derived growth factor receptor beta (Homo sapiens, UniProt P09619); assay: Inhibition of PDGF-BB-induced PDGFRbeta activation in human SH-SY5Y cells pretreated for 60 mins followed by PDGF-BB addition and measured after 10 mins by ELISA; type: cell-based
A-431 = assay: Cytotoxicity against human A431 cells over-expressing EGFR; type: functional, cell-based
Chorioallantoic membrane [4] = assay: Antiangiogenic activity in Leghorn chicken embryo chorioallantoic membrane after 40 hrs by microscopic analysis; type: functional, tissue-based; conditions: Gallus gallus
A10 = assay: Induction of microtubule depolymerization in rat A10 cells after 18 hrs by indirect immunofluorescence method; type: functional, cell-based; conditions: A10, 18 h
MDA-MB-435 = assay: Antiproliferative activity against human MDA-MB-435 cells after 72 hrs by sulforhodamine B assay; type: functional, cell-based; conditions: MDA-MB-435, 72 h
SK-OV-3 = assay: Antiproliferative activity against human SKOV3 cells after 72 hrs by sulforhodamine B assay; type: functional, cell-based; conditions: SK-OV-3, 72 h
[5] = Antiproliferative activity against human SKOV3-MDR1-M6/6 cells after 72 hrs by sulforhodamine B assay; type: functional; conditions: SKOV3-MDR1-M6/6, 72 h
[6] = Resistance index, ratio of IC50 for human SKOV3-MDR1-M6/6 cells to IC50 for human SKOV3 cells; type: functional
HeLa = assay: Antiproliferative activity against human HeLa cells after 72 hrs by sulforhodamine B assay; type: functional, cell-based
[7] = Antiproliferative activity against human wild-type Hela-beta3 cells after 72 hrs by sulforhodamine B assay; type: functional
[8] = Resistance index, ratio of IC50 for human HeLa cells to IC50 for human wild-type Hela-beta3 cells; type: functional
[9] = Inhibition of bovine brain tubulin assembly pretreated for 15 mins followed by GTP addition by spectrophotometric method; parameters: species or system Bos taurus
Bos taurus [10] = organism: Bos taurus; assay: Inhibition of [3H]colchicine binding to bovine brain tubulin at 1 uM measured after 10 mins relative to control
Bos taurus [11] = organism: Bos taurus; assay: Inhibition of [3H]colchicine binding to bovine brain tubulin at 5 uM measured after 10 mins relative to control
Chorioallantoic membrane [12] = assay: Potency index, ratio of sunitinib IC50 to test compound IC50 for antiangiogenic activity in Leghorn chicken embryo chorioallantoic membrane; type: functional, tissue-based; conditions: Gallus gallus

Chain of Vascular endothelial growth factor receptor 2 (P35968 whole entry): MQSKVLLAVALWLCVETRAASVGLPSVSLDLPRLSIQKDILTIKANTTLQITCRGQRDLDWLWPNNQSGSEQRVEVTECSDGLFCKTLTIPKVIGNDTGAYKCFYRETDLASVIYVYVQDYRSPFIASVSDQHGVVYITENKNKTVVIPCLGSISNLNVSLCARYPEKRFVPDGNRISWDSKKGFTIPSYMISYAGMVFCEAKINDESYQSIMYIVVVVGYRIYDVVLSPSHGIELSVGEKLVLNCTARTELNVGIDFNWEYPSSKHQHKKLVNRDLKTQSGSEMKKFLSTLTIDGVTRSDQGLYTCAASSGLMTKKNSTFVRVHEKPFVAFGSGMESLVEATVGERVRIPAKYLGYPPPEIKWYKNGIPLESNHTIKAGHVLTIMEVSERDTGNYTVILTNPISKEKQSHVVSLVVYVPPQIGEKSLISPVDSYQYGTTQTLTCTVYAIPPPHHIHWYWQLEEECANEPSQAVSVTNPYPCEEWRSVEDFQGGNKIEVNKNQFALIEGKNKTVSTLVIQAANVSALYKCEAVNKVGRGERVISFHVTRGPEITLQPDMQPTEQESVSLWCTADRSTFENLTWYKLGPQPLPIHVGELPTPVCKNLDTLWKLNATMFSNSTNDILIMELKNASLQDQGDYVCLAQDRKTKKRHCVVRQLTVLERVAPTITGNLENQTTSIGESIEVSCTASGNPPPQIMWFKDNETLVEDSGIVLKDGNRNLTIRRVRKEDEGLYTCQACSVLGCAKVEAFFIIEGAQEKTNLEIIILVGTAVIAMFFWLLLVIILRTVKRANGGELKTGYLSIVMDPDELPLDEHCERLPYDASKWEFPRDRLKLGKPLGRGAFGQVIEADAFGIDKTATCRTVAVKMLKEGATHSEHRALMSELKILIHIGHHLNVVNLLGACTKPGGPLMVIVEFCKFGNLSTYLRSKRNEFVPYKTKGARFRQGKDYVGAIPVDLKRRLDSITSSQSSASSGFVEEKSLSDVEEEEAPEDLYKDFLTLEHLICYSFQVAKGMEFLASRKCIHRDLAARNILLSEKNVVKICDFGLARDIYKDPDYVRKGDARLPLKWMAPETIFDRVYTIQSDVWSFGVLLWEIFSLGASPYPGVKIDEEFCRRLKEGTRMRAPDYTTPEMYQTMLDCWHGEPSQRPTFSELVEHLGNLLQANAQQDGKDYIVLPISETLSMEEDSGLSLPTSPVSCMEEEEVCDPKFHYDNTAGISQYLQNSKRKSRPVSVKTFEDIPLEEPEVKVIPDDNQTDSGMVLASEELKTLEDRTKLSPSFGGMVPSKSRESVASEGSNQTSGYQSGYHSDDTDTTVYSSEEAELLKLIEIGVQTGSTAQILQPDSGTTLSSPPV
Chain of Platelet-derived growth factor receptor beta (P09619 whole entry): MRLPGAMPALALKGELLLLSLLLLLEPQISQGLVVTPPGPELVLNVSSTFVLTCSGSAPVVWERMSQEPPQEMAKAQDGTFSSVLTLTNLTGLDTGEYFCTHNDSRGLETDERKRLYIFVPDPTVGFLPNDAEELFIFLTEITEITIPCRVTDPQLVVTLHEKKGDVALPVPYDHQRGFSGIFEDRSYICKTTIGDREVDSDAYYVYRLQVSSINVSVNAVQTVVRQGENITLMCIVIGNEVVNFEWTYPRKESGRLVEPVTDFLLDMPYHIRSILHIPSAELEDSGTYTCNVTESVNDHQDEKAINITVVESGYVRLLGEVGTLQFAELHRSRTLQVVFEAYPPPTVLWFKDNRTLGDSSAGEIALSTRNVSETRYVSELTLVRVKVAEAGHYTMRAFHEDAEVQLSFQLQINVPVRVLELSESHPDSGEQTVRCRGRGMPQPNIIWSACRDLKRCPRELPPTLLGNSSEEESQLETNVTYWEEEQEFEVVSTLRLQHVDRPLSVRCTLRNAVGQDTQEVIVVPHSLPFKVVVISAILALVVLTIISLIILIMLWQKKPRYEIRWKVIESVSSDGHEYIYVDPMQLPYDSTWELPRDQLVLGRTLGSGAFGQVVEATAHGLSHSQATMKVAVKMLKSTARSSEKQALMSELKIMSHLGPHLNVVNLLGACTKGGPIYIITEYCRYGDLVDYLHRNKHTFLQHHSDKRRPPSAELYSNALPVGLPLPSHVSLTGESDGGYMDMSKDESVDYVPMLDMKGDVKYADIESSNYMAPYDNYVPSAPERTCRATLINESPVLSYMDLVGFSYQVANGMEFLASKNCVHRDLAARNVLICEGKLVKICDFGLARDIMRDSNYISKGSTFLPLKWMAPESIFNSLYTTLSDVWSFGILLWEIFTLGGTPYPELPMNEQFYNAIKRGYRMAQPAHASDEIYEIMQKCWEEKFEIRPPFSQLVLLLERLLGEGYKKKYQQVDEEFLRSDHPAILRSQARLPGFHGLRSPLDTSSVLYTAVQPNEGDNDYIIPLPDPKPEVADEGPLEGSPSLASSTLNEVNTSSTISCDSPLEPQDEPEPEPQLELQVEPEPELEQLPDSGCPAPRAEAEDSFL
Chain of Epidermal growth factor receptor (P00533 whole entry): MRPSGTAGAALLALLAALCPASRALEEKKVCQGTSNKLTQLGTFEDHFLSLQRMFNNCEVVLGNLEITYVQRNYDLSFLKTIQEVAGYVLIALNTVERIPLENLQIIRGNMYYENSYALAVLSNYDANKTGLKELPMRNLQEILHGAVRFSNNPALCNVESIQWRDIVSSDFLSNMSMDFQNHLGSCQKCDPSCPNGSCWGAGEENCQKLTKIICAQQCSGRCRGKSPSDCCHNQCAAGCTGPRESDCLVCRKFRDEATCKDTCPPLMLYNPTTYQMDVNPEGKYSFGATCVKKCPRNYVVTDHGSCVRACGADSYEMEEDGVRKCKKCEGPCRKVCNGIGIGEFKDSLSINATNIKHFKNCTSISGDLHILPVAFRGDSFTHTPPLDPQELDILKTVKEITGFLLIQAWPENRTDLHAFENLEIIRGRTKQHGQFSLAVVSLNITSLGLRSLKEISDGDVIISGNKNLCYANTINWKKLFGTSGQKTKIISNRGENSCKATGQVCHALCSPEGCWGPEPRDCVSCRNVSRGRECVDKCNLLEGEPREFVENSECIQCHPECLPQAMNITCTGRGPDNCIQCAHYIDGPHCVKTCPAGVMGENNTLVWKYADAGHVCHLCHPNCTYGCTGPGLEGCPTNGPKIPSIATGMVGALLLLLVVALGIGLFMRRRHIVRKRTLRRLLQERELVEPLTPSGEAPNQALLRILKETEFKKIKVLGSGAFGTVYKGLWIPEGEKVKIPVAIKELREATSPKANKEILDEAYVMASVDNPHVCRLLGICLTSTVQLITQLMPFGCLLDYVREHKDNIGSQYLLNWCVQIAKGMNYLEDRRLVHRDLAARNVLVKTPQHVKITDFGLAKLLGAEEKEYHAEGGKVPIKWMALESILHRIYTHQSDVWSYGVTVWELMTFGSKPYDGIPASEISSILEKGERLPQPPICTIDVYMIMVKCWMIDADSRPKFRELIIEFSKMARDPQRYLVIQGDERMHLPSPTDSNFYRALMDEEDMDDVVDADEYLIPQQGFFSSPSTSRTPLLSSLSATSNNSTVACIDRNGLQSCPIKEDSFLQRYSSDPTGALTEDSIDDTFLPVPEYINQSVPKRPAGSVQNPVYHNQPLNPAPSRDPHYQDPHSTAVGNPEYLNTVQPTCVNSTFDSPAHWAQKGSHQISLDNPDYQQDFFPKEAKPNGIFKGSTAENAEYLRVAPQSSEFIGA

Compound	IC50 [1]	IC50 [2]	IC50 [3]	IC50 (A-431)	IC50 (Chorioallantoic membrane [4])	EC50 (A10)	IC50 (MDA-MB-435)	IC50 (SK-OV-3)	IC50 [5]	Ratio IC50 [6]	IC50 (HeLa)	IC50 [7]	Ratio IC50 [8]	IC50 [9]	inhibition (Bos taurus [10])	inhibition (Bos taurus [11])	Ratio IC50 (Chorioallantoic membrane [12])
COc1ccc(N(c2ncnc3occ(C)c23)C(C)C)cc1	10.1 nM	23.4 nM	42.6 nM	4.8 nM	480 nM												
COc1ccc(/C=C\c2cc(OC)c(OC)c(OC)c2)cc1O [COMBRETASTATIN A4]						9.8 nM											
Cc1coc2ncnc(N(C)c3ccc(N(C)C)cc3)c12	3.1 nM	15.6 nM	63 nM	1 nM	653 nM	140 nM	44 nM	70 nM	91 nM	1.3	58 nM	60 nM	1	1100 nM	59%	86%	
CC(=O)O[C@H]1C(=O)[C@@]2(C)[C@H]([C@H](OC(=O)c3ccccc3)[C@]3(O)C[C@H](OC(=O)[C@H](O)[C@@H](NC(=O)c4ccccc4)c4ccccc4)C(C)=C1C3(C)C)[C@]1(OC(C)=O)CO[C@@H]1C[C@@H]2O [PACLITAXEL]								5 nM				24 nM					
CCc1ccc(N(C)c2ncnc3occ(C)c23)cc1	4 nM	7.8 nM	28.9 nM	1.4 nM	287 nM												4
Cc1coc2ncnc(Nc3ccc(N(C)C)cc3)c12	> 200 nM	> 200 nM	> 200 nM			> 10000 nM											
CNc1ccc(N(C)c2ncnc3occ(C)c23)cc1	6.4 nM	12.7 nM	57.8 nM	2.9 nM	707 nM	240 nM	74 nM	95 nM	101 nM	1.1	74 nM	86 nM	1.2				
CSc1ccc(N(C)c2ncnc3occ(C)c23)cc1	7.2 nM	13.6 nM	62.2 nM	2.9 nM	520 nM												
